In US20240092757A1, “HETEROARYL DIAMIDE IRE1/XBP1s ACTIVATORS” (Protego Biopharma, Inc., priority 2021, published 2024):
Structures can show the parent of a compound that is named as a salt.

The molecules below were run on IRE1-XBP1s (assay: IRE1-XBP1s activation Assay (XBP1-RLuc splicing reporter, HEK293 T-REx cells)). Conditions: compound 10 μM, 18 h, HEK293 T-REx cells stably expressing XBP1-RLuc splicing reporter, relative to thapsigargin (Tg) 500 nM, read-out: Activity (IRE1-XBP1s Activation; luminescence as percentage signal relative to thapsigargin).
Type: cell-based
Experimental: IRE1-XBP1s activation Assay: HEK293 T-REx cells stably expressing the XBP1-RLuc splicing reporter were treated with an IRE1—XBP1s activator provided herein (10 μM) in the presence or absence of the IRE1 active site inhibitor 4 μ8C (32 μM) for 18 h. Luminescence was shown as the percentage signal relative to thapsigargin (Tg) (500 nM, 18 h).

Row | SMILES | activation at 10 µM
1 | COc1ccc(OCCC(=O)Nc2cnn(CC(=O)N(C)CCOc3ccc(C)cc3)c2)cc1 [Compound 10] | ≥ 50%
2 | Cc1ccc(OCCN(C)C(=O)Cn2cnc(NC(=O)CCOc3ccc(F)cc3)c2)cc1 [Compound 16] | ≥ 50%
3 | Cc1ccc(OCCN(C)C(=O)Cn2cc(NC(=O)CCc3ccccc3)cn2)cc1 [Compound 25, N-(1-(2-(Methyl(2-(p-tolyloxy)ethyl)amino)-2-oxoethyl)-1H -pyrazol-4-yl)-3-phenylpropanamide hydrochloride] | 30 to 50%
4 | Cc1ccc(OCCN(C)C(=O)Cn2cc(NC(=O)Cc3ccccc3)cn2)cc1 [Compound 26, N-Methyl-2-(4-(2-phenylacetamido)-1H-pyrazol-1-yl)-N-(2-(p-tolyloxy)ethypacetamide hydrochloride] | < 30%
5 | CN(CCc1ccccc1)C(=O)Cn1cc(NC(=O)CCOc2ccccc2)cn1 [Compound 27, N-(1-(2-(methyl(phenethyl)amino)-2-oxoethyl)-1H-pyrazol-4-yl) -3-phenoxypropanamide hydrochloride] | < 30%
6 | CN(C(=O)Cn1cc(NC(=O)CCOc2ccccc2)cn1)c1ccccc1 [Compound 28, N-(1-(2-(Methyl(phenyl)amino)-2-oxoethyl)-1H-pyrazol-4-yl)-3-phenoxypropanamide hydrochloride] | < 30%
7 | CN(CCOc1ccccc1)C(=O)Cn1cc(NC(=O)CCOc2ccccc2)cn1 [Compound 29, N-(1-(2-(Methyl(2-phenoxyethyl)amino)-2-oxoethyl)-1H-pyrazol-4-yl)-3-phenoxypropanamide hydrochloride] | < 30%
8 | CN(CCOc1ccc(C(F)(F)F)cc1)C(=O)Cn1cc(NC(=O)CCOc2ccccc2)cn1 [Compound 30, N-(1-(2-(Methyl(2-(4-(trifluoromethyl)phenoxy)ethyl)amino)-2-oxoethyl)-1H-pyrazol-4-yl)-3-phenoxypropanamide hydrochloride] | ≥ 50%
9 | CN(CCCc1ccc(C(F)(F)F)cc1)C(=O)Cn1cc(NC(=O)CCOc2ccccc2)cn1 [Compound 31] | < 30%
10 | Cc1ccc(OCCN(C)C(=O)Cn2cc(NC(=O)CCOc3ccccc3F)cn2)cc1 [Compound 34] | ≥ 50%
11 | Cc1ccc(OCCN(C)C(=O)Cn2cc(NC(=O)CCOc3ccc(CO)cc3)cn2)cc1 [Compound 35] | ≥ 50%
12 | Cc1ccc(OCCN(C)C(=O)Cn2cc(NC(=O)CCOc3cccc(F)c3)cn2)cc1 [Compound 36] | ≥ 50%
13 | Cc1ccc(OCCN(C)C(=O)Cn2cc(NC(=O)CCOc3ccc(N)cc3)cn2)cc1 [Compound 37] | ≥ 50%
14 | CN(CCOc1ccccn1)C(=O)Cn1cc(NC(=O)CCOc2ccccc2)cn1 [Compound 38] | < 30%
15 | CN(CCOc1ccc(C(F)(F)F)cn1)C(=O)Cn1cc(NC(=O)CCOc2ccccc2)cn1 [Compound 39] | 30 to 50%
16 | CN(CCOc1ccc(C2(C(F)(F)F)N=N2)cc1)C(=O)Cn1cc(NC(=O)CCOc2ccccc2)cn1 [Compound 40] | < 30%
17 | Cc1ccc(OCCNC(=O)Cn2cc(NC(=O)CCOc3ccccc3)cn2)cc1 [Compound 41] | < 30%
18 | COc1ccc(OCCNC(=O)Cn2cc(NC(=O)CCOc3ccccc3)cn2)cc1 [Compound 42] | < 30%
19 | Cc1ccc(CN(C)C(=O)Cn2cc(NC(=O)CCOc3ccccc3)cn2)cc1 [Compound 43] | < 30%
20 | Cc1ccc(OCCN(C)C(=O)Cn2cc(NC(=O)COc3ccccc3)cn2)cc1 [Compound 44] | 30 to 50%
21 | Cc1ccc(OCCN(C)C(=O)Cn2cc(NC(=O)CCOc3ccc(Cl)cc3)cn2)cc1 [Compound 45] | 30 to 50%
22 | Cc1ccc(OCCN(C)C(=O)C(C)n2cc(NC(=O)CCOc3ccccc3)cn2)cc1 (centres unmarked) [Compound 46] | 30 to 50%
23 | Cc1ccc(OCCN(C)C(=O)Cn2nc(C)c(NC(=O)CCOc3ccccc3)c2C)cc1 [Compound 47] | < 30%
24 | Cc1ccc(OCCN(C)C(=O)Cn2ccc(NC(=O)CCOc3ccccc3)n2)cc1 [Compound 50, N-(1-(2-(methyl(2-(p-tolyloxy)ethyl)amino)-2-oxoethyl)-1H -pyrazol-3-yl)-3-phenoxypropanamide] | < 30%
25 | COc1ccc(OCCC(=O)Nc2ccn(CC(=O)N(C)CCOc3ccc(C)cc3)n2)cc1 [Compound 51] | < 30%
26 | Cc1ccc(OCCN(C)C(=O)Cn2cc(NC(=O)CCCc3ccccc3)cn2)cc1 [Compound 53] | 30 to 50%
